Patent US20230338554A1, “GALACTOSYLATED DENDRIMERS FOR TARGETED INTRACELLULAR DELIVERY TO HEPATOCYTES” (The Johns Hopkins University, priority 2020, published 2023)

Experiments:
[1] = target: T1, ASGPR (Homo sapiens, UniProt P07306); settings: cited from earlier work
T1 sequence (P07306 1-291): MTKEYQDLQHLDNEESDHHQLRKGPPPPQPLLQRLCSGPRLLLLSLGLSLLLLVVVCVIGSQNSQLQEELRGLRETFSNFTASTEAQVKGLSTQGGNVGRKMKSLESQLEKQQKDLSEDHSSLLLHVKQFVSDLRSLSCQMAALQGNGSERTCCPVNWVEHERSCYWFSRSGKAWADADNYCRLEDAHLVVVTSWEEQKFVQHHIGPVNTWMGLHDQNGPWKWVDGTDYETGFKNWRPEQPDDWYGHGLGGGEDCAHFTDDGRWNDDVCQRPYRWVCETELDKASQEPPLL

[2] = test system: severe acetaminophen poisoning; test: Gal-D4-NAC treatment in mouse model of severe acetaminophen poisoning; type: in vivo, C57BL6 mice
Procedure: A model of severe acetaminophen poisoning was established through the administration of 700 mg/kg APAP i.p. to C57BL6 mice (FIG. 12A). There was a high mortality rate, with >90% of mice given APAP overdose dying with 72 hours regardless of treatment with free NAC (FIG. 12B). FIG. 12B represents the survival of healthy sham (black) and saline (red), free NAC (green), and Gal-D4-NAC (blue) treated animals as determined by mass reduction below 80% of the initial animal mass. This model replicates the effects of APAP overdose that result in fulminant liver failure and are considered untreatable with the current clinical NAC regiment. Additionally, to mimic delayed treatment due to late arrival at the hospital, animals eight hours after APAP overdose were also treated as opposed to the pre- and co-treatments with nanoparticles that are typically reported in this model. Both dendrimer and free drug treated animals received 100 mg/kg of NAC, which is […] of the dose that would be administered over 24 hours by i.v. infusion in the clinic.
Next liver necrosis and function were assessed through analysis of images from liver sections isolated at time of death and stained for hematoxylin and eosin. […] After receiving an overdose of APAP, liver structure is essentially destroyed. […]

SMILES | monovalent binding affinity to ASGPR [1] | mice dying ([2]; 700 mg/kg APAP i.p., 72 hours) [%] | liver architecture / liver health ([2]; single i.v. dose 100 mg/kg on a NAC basis)
CC(=O)N[C@H]1C(O)O[C@H](CO)[C@H](O)[C@@H]1O (stereo partly drawn) [N-acetylgalactosamine (GalNAc), N-acetylgalactosamine] | micromolar scale | – | –
CC(=O)N[C@@H](CS)C(=O)O [free NAC, N-acetyl cysteine] | – | > 90 | unable to have any effect on liver health
